Results: patent US7598260B2, “CDK-inhibitory pyrimidines, their production and use as pharmaceutical agents” (Bayer Schering Pharma Aktiengesellschaft, priority 2001, dated 2009)
Where two headings read alike, the source gives them in different places.

Legend:
MCF-7 cells = experiment: Proliferation assay, crystal violet staining (cell test), MCF-7; format: cell-based; settings: Homo sapiens
Procedure: (§1) Cultivated human tumor cells (as indicated) are flattened out at a density of 5000 cells/measuring point in a 96-hole multititer plate in 200 μl of the corresponding growth medium. After 24 hours, the cells of one plate (zero-point plate) are colored with crystal violet (see below), while the medium of the other plates is replaced by fresh culture medium (200 μl), to which the test substances are added at various concentrations (0 μm, as well as in the range of 0.01-30 μm; the final concentration of the solvent dimethyl sulfoxide is 0.5%). The cells are incubated for 4 days in the presence of test substances. The cell proliferation is determined by coloring the cells with crystal violet: the cells are fixed by adding 20 μl/measuring point of a 11% glutaric aldehyde solution for 15 minutes at room temperature. After three washing cycles of the fixed cells with water, the plates are dried at room temperature. The cells are colored by adding 100 μl/measuring point of a 0.1% crystal violet solution (pH is set at 3 by adding acetic acid). After three washing cycles of the colored cells with water, the plates are dried at room temperature. The dye is dissolved by adding 100 μl/measuring point of a 10% acetic acid solution. The extinction is determined by photometry at a wavelength of 595 nm. The change of cell growth, in percent, is calculated by standardization of the measured values to the extinction values of the zero-point plate (=0%) and the extinction of the untreated (0 μm) cells (=100%).

[1] = Solubility (Löslichkeit, g/l); format: physicochemical; settings: for Löslichkeit: comparison with known compounds
CDK2/CycE = biological target: T1, CDK2/CycE (Homo sapiens, UniProt P24941); experiment: CDK2/CycE kinase assay (enzyme test); format: biochemical; settings: read-out: Inhibition IC50 [nM] CDK2/CycE
T1 construct: GST; purchased Dr. Dieter Marmé, Klinik für Tumorbiologie, Freiburg; host or cells: baculovirus-infected Sf9 insect cells
Procedure: Recombinant CDK2- and CycE-GST-fusion proteins, purified from baculovirus-infected insect cells (Sf9), are obtained by Dr. Dieter Marmé, Klinik für Tumorbiologie [Clinic for Tumor Biology], Freiburg. Histone IIIS, which is used as a kinase substrate, is purchased by the Sigma Company.
The reaction was is stopped by adding EDTA solution (250 mmol, pH 8.0, 14 μl/measuring point).
From each reaction batch, 10 μl applied to P30 filter strips (Wallac Company), and non-incorporated ^33P-ATP is removed by subjecting the filter strips to three washing cycles for 10 minutes each in 0.5% phosphoric acid. After the filter strips are dried for one hour at 70° C., the filter were are covered with scintillator strips (MeltiLex™ A, Wallac Company) and baked for one hour at 90° C. The amount of incorporated ^33P (substrate phosphorylation) is determined by scintillation measurement in a gamma-radiation measuring device (Wallac).

[2] = tested on: human tumor cells (as indicated); experiment: Proliferation assay, crystal violet staining, other human tumor cells as indicated in the tables; format: cell-based; settings: 4 days incubation
Procedure: as §1

[3] = 96 h, MCF7 cells, 4 days incubation, read-out: Proliferation IC50 [μM] MCF7
[4] = NCI-H460, 96 h, H460 cells, read-out: Proliferation IC50 [μM] H460
[5] = DU-145, 96 h, DU145 cells, read-out: Proliferation IC50 [μM] DU145
[6] = HCT-116, 96 h, HCT116 cells, read-out: Proliferation IC50 [μM] HCT116
[7] = MCF7, MCF-7 cells, comparison with known compounds, read-out: MCF-7 IC50

Compound	IC50 (MCF-7 cells; [3]) [µM]	Sw [1] [g/L]	IC50 (CDK2/CycE) [nM]	IC50 [2, 4] [µM]	IC50 [2, 5] [µM]	IC50 [2, 6] [µM]	IC50 (MCF-7 cells; [7]) [µM]	Löslichkeit [1] [g/L]
OCC(CO)Nc1nc(Nc2ccc(O)cc2)ncc1Br [Example 3]	8	0.039	200					
CC(C)[C@H](CO)Nc1nc(Nc2ccc(O)cc2)ncc1Br [Example 4]	8	0.042	40					
C#CCNc1nc(Nc2ccc(O)cc2)ncc1Br [Example 5, 4-[[5-Bromo-4-(2-propynylamino)-2-pyrimidinyl]amino]-phenol]	10	0.043	90					
C#CCOc1nc(Nc2ccc(O)cc2)ncc1Br [Example 6, 4-[[5-Bromo-4-(2-propynyloxy)-2-pyrimidinyl]amino]-phenol]	4	0.008	70	6				
COC[C@H](C)Nc1nc(Nc2ccc(S(N)(=O)=O)cc2)ncc1Br [Example 7]	0.7	0.028	6	1.5	0.5	1.2		
NS(=O)(=O)c1ccc(Nc2ncc(Br)c(NCCN3CCOCC3)n2)cc1 [Example 8]	4	0.007	< 10					
NS(=O)(=O)c1ccc(Nc2ncc(Br)c(NC(CO)CO)n2)cc1 [Example 9]	0.9		7		3	3	0.9	0.009
CSc1ccc(Nc2ncc(Br)c(NC(CO)CO)n2)cc1 [Example 14]	3	0.013	200					
CSc1ccc(Nc2ncc(Br)c(N[C@@H](CO)C(C)C)n2)cc1 [Example 15]	> 10	0.024	300					
COC[C@H](C)Nc1nc(Nc2cccc(S(=O)(=O)CCO)c2)ncc1Br [Example 17]	> 10	0.04	1000					
O=S(=O)(CCO)c1cccc(Nc2ncc(Br)c(NCCN3CCOCC3)n2)c1 [Example 18]		0.039	2000					
O=S(=O)(CCO)c1cccc(Nc2ncc(Br)c(NC(CO)CO)n2)c1 [Example 19]	> 10	0.041	800					
C#CCOc1nc(Nc2ccc(C(C)=O)cc2)ncc1Br [Example 22, 1-[4-[(5-Bromo-4-(2-propynyloxy)-2-pyrimidinyl)amino]phenyl]-ethanone]	1.2	0.003	40	1.5	1.5	1.5		
C#CCNc1nc(Nc2ccc([S+](C)[O-])cc2)ncc1Br (centres unmarked) [Example 25]	1.2	0.017	70	1.5	1.2	1.1		
C#CCNc1nc(Nc2ccc(CP(=O)(OCC)OCC)cc2)ncc1Br [Example 31]	7	0.0023	800					
C#CCNc1nc(Nc2cccc(S(N)(=O)=O)c2)ncc1Br [Example 36]	0.4	0.018	30	0.6	0.6	0.5		
C#CCNc1nc(Nc2ccc3[nH]ncc3c2)ncc1Br [Example 37, N-[5-Bromo-4-(2-propynylamino)-2-pyrimidinyl]-indazol-5-amine]	4	0.006	70					
C#CCNc1nc(Nc2ccc3c(c2)CCN3S(C)(=O)=O)ncc1Br [Example 39]		0.0016	300					
C#CCOc1nc(Nc2ccc(OCC3CO3)cc2)ncc1Br (centres unmarked) [Example 40]	1	0.002	20	3	9	3		

Second part, the compound after the results:

IC50 (MCF-7 cells; [3]) [µM]	Sw [1] [g/L]	IC50 (CDK2/CycE) [nM]	IC50 [2, 4] [µM]	IC50 [2, 5] [µM]	IC50 [2, 6] [µM]	IC50 (MCF-7 cells; [7]) [µM]	Löslichkeit [1] [g/L]	Compound
1.2	0.005	8	0.4	0.3	0.4			C#CCNc1nc(Nc2ccc(S(N)(=O)=O)cc2)ncc1Cl [Example 44]
2	0.0094	10	1.7	0.5	1.2			CCC(Nc1nc(Nc2ccc(S(N)(=O)=O)cc2)ncc1Br)C(=O)OC (centres unmarked) [Example 45]
2	0.0069	7						NS(=O)(=O)c1ccc(Nc2ncc(Br)c(NCC3CC3)n2)cc1 [Example 46]
0.2	0.042	4	1	0.3	0.4	0.2	0.042	CC(C)[C@H](CO)Nc1nc(Nc2ccc(S(=O)(=O)NCCO)cc2)ncc1Br [Example 48]
> 10	0.044	50						NS(=O)(=O)c1ccc(Nc2ncc(Br)c(NCCCC(=O)O)n2)cc1 [Example 49]
0.2	0.0005	200	1.6	2	1.2			CC(=O)c1ccc(Nc2ncc(Br)c(NCC3CC3)n2)cc1 [Example 52]
1.6	0.026	300						CC(=O)c1ccc(Nc2ncc(Br)c(N[C@H](CO)C(C)C)n2)cc1 [Example 53]
4	0.023	80						CC(=O)c1ccc(Nc2ncc(Br)c(N[C@@H](CO)C(C)C)n2)cc1 [Example 56]
	0.0005	400						CC(=O)c1ccc(Nc2ncc(Br)c(OCCCC(F)(F)F)n2)cc1 [Example 84]
	0.001	2000						CCOC(=O)CCCNc1nc(Nc2ccc(C(C)=O)cc2)ncc1Br [Example 85]
0.8	0.003	250						CC(=O)c1ccc(Nc2ncc(Br)c(NCCc3c[nH]cn3)n2)cc1 [Example 87]
